Data: US20160304552A1, “MODIFIED NUCLEIC ACID MOLECULES AND USES THEREOF” (MODERNA THERAPEUTICS, INC., priority 2013, published 2016)

Tests used:
T7 RNA polymerase = T7 RNA polymerase (Escherichia phage T7, UniProt P00573); assay: In vitro transcription yields of modified mRNA; format: biochemical; conditions: for EPO In Vitro Transcription yield: EPO mRNA made with the modified NTP(s); for GCSF In Vitro Transcription yield: GCSF mRNA made with the modified NTP(s); for Luc In Vitro Transcription yield: Luciferase mRNA made with the modified NTP(s)
Sequence of T7 RNA polymerase (P00573 whole entry): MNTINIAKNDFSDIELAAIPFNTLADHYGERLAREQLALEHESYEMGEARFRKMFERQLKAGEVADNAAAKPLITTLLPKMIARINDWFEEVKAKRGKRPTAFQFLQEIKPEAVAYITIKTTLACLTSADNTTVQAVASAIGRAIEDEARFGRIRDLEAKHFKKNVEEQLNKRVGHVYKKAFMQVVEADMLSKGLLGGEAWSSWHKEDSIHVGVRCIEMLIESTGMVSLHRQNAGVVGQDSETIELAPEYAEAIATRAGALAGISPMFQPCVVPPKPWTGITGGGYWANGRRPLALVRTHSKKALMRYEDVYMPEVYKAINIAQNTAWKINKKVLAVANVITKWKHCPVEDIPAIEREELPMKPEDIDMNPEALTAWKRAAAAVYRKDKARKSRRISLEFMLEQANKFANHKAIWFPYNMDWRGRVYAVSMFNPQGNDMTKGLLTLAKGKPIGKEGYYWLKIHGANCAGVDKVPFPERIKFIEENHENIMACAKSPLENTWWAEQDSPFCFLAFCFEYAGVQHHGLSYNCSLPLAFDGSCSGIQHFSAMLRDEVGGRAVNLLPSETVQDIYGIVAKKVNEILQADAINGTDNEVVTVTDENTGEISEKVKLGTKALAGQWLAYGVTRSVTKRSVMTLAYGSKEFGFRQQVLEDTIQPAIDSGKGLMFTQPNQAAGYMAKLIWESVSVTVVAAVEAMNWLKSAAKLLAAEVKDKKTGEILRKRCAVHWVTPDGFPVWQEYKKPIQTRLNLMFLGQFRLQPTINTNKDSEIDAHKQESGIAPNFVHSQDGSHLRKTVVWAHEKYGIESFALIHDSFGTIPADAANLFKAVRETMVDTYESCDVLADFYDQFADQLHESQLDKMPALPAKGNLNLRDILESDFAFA
Experimental: The in vitro transcription reaction generates mRNA containing modified nucleotides or modified RNA. The input nucleotide triphosphate (NTP) mix is made in-house using natural and unnatural NTPs.
A typical in vitro transcription reaction includes the following:
Incubation at 37° C. for 3 hr-5 hrs.
The crude IVT mix may be stored at 4° C. overnight for cleanup the next day. 1 U of RNase-free DNase is then used to digest the original template. After 15 minutes of incubation at 37° C., the mRNA is purified using Ambion's […]™ Kit (Austin, Tex.) following the manufacturer's instructions. This kit can purify up to 500 μg of RNA. Following the cleanup, the RNA is quantified using the NanoDrop and analyzed by agarose gel electrophoresis to confirm the RNA is the proper size and that no degradation of the RNA has occurred.
Modified mRNAs in TE buffer (1 μl) are used for Nanodrop UV absorbance readings to quantitate the yield of each modified mRNA from an in vitro transcription reaction (UV absorbance traces are not shown).

human PBMC = assay: PBMC cytokine assay, interferon-alpha production (IFN-alpha multi-subtype ELISA); format: cell-based
Experimental: 50 mL of human blood from three donors was received from Research Blood Components (Brighton, Mass.) in sodium heparin tubes. […] The tubes were centrifuged at 2000 rpm for 30 minutes with low acceleration and braking (Thermo, Waltham, Mass., 75004506). The tubes were removed and the buffy coat PBMC layers were gently transferred to a fresh 50 mL conical and washed with DPBS. The tubes were centrifuged at 1450 rpm for 10 minutes. The supernatant was aspirated and the PBMC pellets were resuspended and washed in 50 mL of DPBS. The tubes were centrifuged at 1450 rpm for 10 minutes. […] The cell suspensions were adjusted to a concentration of 3.0×10^6 cells/mL live cells. […] Within 30 minutes, transfection mixtures were added to each well at a volume of 50 μL per well. […] The transfection mixtures were then transferred to each of the human PBMC plates at 50 μL per well (6 wells per mRNA sample). The plates were then incubated at 37° C. […] In order to harvest the supernatant, plates were centrifuged at 1450 rpm for 5 min in a swinging plate rotor. The supernatant of 6 wells transfected with the same mRNA was carefully harvested and pooled in a single well of a fresh 96-well plate. Supernatants were either frozen or used fresh until ELISA analysis was done. The ability of unmodified and modified mRNA to trigger innate immune recognition as measured by interferon-alpha production.

BJ fibroblast cells = assay: Cytokine screen in BJ fibroblast cells, human CCL-5/RANTES ELISA; format: cell-based; conditions: BJ fibroblasts, 500 ng modRNA, 18 h to 22 h
Experimental: At 2 or 3 days prior to transfection, 100,000 BJ fibroblast cells (ATCC no. CRL-2522; Manassas, Va.) were harvested by treatment with trypsin-EDTA solution (LifeTechnologies, Grand Island, N.Y.) and seeded in a total volume of 500 ul EMEM medium (supplemented with 10% FCS and 10% Glutamax, both LifeTechnologies, Grand Island, N.Y.) per well in 24-well cell culture plates (Corning, Manassas, Va.). The cells were grown at 37° C. in a 5% CO2 atmosphere overnight. On the next day, 500 ng modRNA, harboring chemical modifications on the bases or the ribose units, were diluted in 25 ul final volume of OPTI-MEM (LifeTechnologies, Grand Island, N.Y.). Lipofectamine 2000 (LifeTechnologies, Grand Island, N.Y.) was used as transfection reagent and 1.0 ul was diluted in 25 ul final volume of OPTI-MEM. After 5 min incubation at room temperature, both solutions were combined and incubated an additional 15 min at room temperature. The 50 ul were added to the 500 ul cell culture medium containing the BJ fibroblast cells. The plates were then incubated as described above.
After 18 h to 22 h incubation, cell culture supernatants were collected and centrifuged at 10,000 rcf for 2 min. The cleared supernatants were transferred and analyzed with a human IFN-beta ELISA (R&D Systems, Minneapolis, Minn.; Cat. #s 41410-2) and human CCL-5/RANTES ELISA (R&D Systems, Minneapolis, Minn.; Cat. #s SRN00B) according to the manufacturer instructions. All samples were diluted until the determined values were within the linear range of the ELISA standard curves using a BioTek Synergy H1 plate reader (BioTek, Winooski, Vt.).

With `CNCc1cn([C@@H]2O[C@H](COP(=O)(O)OP(=O)(O)OP(=O)(O)O)C(O)C2O)c(=O)[nH]c1=O` (stereo partly drawn) [00901013006 (353), 5-Methylamino methyl-UTP] the “EPO In Vitro Transcription yield” value (T7 RNA polymerase) was 0.3060 mg, the “GCSF In Vitro Transcription yield” value (T7 RNA polymerase) was 0.3494 mg and the “Luc In Vitro Transcription yield” value (T7 RNA polymerase) was 0.2914 mg.

For `O=c1[nH]c(=S)ccn1[C@@H]1O[C@H](COP(=O)(O)OP(=O)(O)OP(=O)(O)O)C(O)C1O` (stereo partly drawn) [00901013011 (2), 4-Thio-UTP], the “EPO In Vitro Transcription yield” value (T7 RNA polymerase) was 0.0416 mg, the “GCSF In Vitro Transcription yield” value (T7 RNA polymerase) was 0.0759 mg and the “Luc In Vitro Transcription yield” value (T7 RNA polymerase) was 0.1625 mg.

In the case of `Cn1c(=O)[nH]cc([C@@H]2O[C@H](COP(=O)(O)OP(=O)(O)OP(=O)(O)O)C(O)C2O)c1=O` (stereo partly drawn) [00901015187 (236), 3-Methyl-pseudo-UTP], the “EPO In Vitro Transcription yield” value (T7 RNA polymerase) is reported as 0.0125 mg, the “GCSF In Vitro Transcription yield” value (T7 RNA polymerase) is reported as 0.0120 mg and the “Luc In Vitro Transcription yield” value (T7 RNA polymerase) is reported as 0.0152 mg.

With `Nc1nc(=O)n([C@@H]2O[C@H](COP(=O)(O)OP(=O)(O)OP(=O)(O)O)C(O)C2O)cc1C(F)(F)F` (stereo partly drawn) [00901016002 (351), 5-Trifluoromethyl-CTP] the “interferon-alpha concentration in PBMC supernatant” value (shortened to “interferon-alpha concentration”) (human PBMC; Luc mRNA, 1st value in cell) was 6670 pg/mL, the “interferon-alpha concentration” value (human PBMC; Luc mRNA, 2nd value in cell) was 2190 pg/mL and the “interferon-alpha concentration” value (human PBMC; Luc mRNA, 3rd value in cell) was 6410 pg/mL. The “interferon-alpha concentration” value (human PBMC; hEPO mRNA, 1st value in cell) was 4440 pg/mL, the “interferon-alpha concentration” value (human PBMC; hEPO mRNA, 2nd value in cell) was 3100 pg/mL and the “interferon-alpha concentration” value (human PBMC; hEPO mRNA, 3rd value in cell) was 1412.5 pg/mL. The “interferon-alpha concentration” value (human PBMC; hGCSF mRNA, 1st value in cell) was 6253.33 pg/mL, the “interferon-alpha concentration” value (human PBMC; hGCSF mRNA, 2nd value in cell) was 6725 pg/mL and the “interferon-alpha concentration” value (human PBMC; hGCSF mRNA, 3rd value in cell) was 6280 pg/mL.

`Nc1nc(N)c2ncn([C@@H]3O[C@H](COP(=O)(O)OP(=O)(O)OP(=O)(O)O)C(O)C3O)c2n1` (stereo partly drawn) [03601011002 (154), 2-Amino-ATP] was tested, and the “EPO In Vitro Transcription yield” value (T7 RNA polymerase) was 0.2612 mg, the “GCSF In Vitro Transcription yield” value (T7 RNA polymerase) was 0.1567 mg and the “Luc In Vitro Transcription yield” value (T7 RNA polymerase) was 0.1215 mg.

`O=c1[nH]c(=O)n(CC(F)(F)F)cc1[C@@H]1O[C@H](COP(=O)(O)OP(=O)(O)OP(=O)(O)O)C(O)C1O` (stereo partly drawn) [03601015005 (175), 1-(2,2,2-Trifluoroethyl) pseudo-UTP] was tested, and the “EPO In Vitro Transcription yield” value (T7 RNA polymerase) was 0.3379 mg, the “GCSF In Vitro Transcription yield” value (T7 RNA polymerase) was 0.2332 mg and the “Luc In Vitro Transcription yield” value (T7 RNA polymerase) was 0.4388 mg.

In the case of `Cn1c(N)nc2c(ncn2[C@@H]2O[C@H](COP(=O)(O)OP(=O)(O)OP(=O)(O)O)C(O)C2O)c1=O` (stereo partly drawn) [Compound 00901012008, N1-Me-GTP], the “EPO In Vitro Transcription yield” value (T7 RNA polymerase) is reported as 0.0032 mg, the “GCSF In Vitro Transcription yield” value (T7 RNA polymerase) is reported as 0.0050 mg and the “Luc In Vitro Transcription yield” value (T7 RNA polymerase) is reported as 0.0059 mg.

For `Cn1c(=N)ccn([C@@H]2O[C@H](COP(=O)(O)OP(=O)(O)OP(=O)(O)O)C(O)C2O)c1=O` (stereo partly drawn) [Compound 00901014006, 3-Methyl-CTP], the “EPO In Vitro Transcription yield” value (T7 RNA polymerase) was 0.0060 mg, the “GCSF In Vitro Transcription yield” value (T7 RNA polymerase) was 0.0141 mg and the “Luc In Vitro Transcription yield” value (T7 RNA polymerase) was 0.0068 mg.

With `Nc1ccn([C@@H]2O[C@H](COP(=O)(O)OP(=O)(O)OP(=O)(O)O)C(O)C2O)c(=S)n1` (stereo partly drawn) [Compound 00901014010, 2-Thio-CTP] the “EPO In Vitro Transcription yield” value (T7 RNA polymerase) was 0.0061 mg, the “GCSF In Vitro Transcription yield” value (T7 RNA polymerase) was 0.0076 mg and the “Luc In Vitro Transcription yield” value (T7 RNA polymerase) was 0.0073 mg.

For N4-acetyl-cytidine TP, ATP, GTP, UTP, the “Luc mRNA RANTES” value (BJ fibroblast cells) was 2546 pg/mL, the “hEpo mRNA RANTES” value (BJ fibroblast cells) was 4360 pg/mL and the “hGCSF mRNA RANTES” value (BJ fibroblast cells) was 4103 pg/mL.

With pseudouridine TP, ATP, GTP, CTP the “Luc mRNA RANTES” value (BJ fibroblast cells) was 4600 pg/mL, the “hEpo mRNA RANTES” value (BJ fibroblast cells) was 5490 pg/mL and the “hGCSF mRNA RANTES” value (BJ fibroblast cells) was 5016 pg/mL.
